The values that follow come from patent US20040142317A1, “Use of amino acid transporter atbo,+ as a delivery system for drugs and prodrugs” (priority 2003, published 2004).

For series [1], the target named is T1, mouse ATB^0,+ (Mus musculus, UniProt Q9JMA9).
T1 sequence (Q9JMA9 1-638): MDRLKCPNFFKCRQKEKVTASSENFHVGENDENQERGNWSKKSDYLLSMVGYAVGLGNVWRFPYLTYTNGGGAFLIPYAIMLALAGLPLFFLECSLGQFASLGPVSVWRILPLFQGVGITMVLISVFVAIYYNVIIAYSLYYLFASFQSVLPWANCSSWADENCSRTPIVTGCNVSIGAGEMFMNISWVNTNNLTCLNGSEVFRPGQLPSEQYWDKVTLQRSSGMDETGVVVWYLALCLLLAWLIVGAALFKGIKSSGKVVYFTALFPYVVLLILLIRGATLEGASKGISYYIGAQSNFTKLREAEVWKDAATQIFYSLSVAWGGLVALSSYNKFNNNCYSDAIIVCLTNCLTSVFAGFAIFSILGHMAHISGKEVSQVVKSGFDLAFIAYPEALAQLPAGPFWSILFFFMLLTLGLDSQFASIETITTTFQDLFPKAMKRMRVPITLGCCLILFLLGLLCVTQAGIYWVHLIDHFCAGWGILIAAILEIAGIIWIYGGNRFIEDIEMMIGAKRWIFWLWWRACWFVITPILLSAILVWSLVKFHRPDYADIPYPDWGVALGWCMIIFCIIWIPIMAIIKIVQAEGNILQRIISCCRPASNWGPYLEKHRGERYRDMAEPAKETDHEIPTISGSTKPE

In series [2] the target is T1, mouse ATB^0,+. As to the kind of experiment: cell-based.
A further series deals with T2, ATB^0 (Homo sapiens, UniProt Q15758).
T2 sequence (Q15758 1-541): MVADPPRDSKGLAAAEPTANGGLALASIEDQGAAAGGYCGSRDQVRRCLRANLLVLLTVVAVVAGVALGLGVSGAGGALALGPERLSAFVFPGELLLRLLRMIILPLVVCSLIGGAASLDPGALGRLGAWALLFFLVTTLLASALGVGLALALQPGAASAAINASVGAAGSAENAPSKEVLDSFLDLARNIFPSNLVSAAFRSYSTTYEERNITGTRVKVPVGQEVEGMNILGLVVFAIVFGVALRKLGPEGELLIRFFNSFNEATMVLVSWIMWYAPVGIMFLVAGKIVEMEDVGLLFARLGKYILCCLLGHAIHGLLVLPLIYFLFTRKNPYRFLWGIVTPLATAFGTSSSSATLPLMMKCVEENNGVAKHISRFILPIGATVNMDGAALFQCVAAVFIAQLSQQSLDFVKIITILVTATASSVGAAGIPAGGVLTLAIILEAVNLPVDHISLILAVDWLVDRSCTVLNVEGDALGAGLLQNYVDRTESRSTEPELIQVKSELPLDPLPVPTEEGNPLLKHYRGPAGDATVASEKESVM
Briefly: cell-based.

In series [3] the target is T1, mouse ATB^0,+. As to the kind of experiment: Transport of radiolabeled substrates in HRPE cells expressing cloned mouse ATB0,+. The class given is cell-based.
Series [4] has as its target T1, mouse ATB^0,+. This is another data set of the same source.
Series [5] deals with T1, mouse ATB^0,+. The source holds these as a separate data set.
The next series deals with T3, OCTN2 (Homo sapiens, UniProt O76082).
T3 sequence (O76082 1-557): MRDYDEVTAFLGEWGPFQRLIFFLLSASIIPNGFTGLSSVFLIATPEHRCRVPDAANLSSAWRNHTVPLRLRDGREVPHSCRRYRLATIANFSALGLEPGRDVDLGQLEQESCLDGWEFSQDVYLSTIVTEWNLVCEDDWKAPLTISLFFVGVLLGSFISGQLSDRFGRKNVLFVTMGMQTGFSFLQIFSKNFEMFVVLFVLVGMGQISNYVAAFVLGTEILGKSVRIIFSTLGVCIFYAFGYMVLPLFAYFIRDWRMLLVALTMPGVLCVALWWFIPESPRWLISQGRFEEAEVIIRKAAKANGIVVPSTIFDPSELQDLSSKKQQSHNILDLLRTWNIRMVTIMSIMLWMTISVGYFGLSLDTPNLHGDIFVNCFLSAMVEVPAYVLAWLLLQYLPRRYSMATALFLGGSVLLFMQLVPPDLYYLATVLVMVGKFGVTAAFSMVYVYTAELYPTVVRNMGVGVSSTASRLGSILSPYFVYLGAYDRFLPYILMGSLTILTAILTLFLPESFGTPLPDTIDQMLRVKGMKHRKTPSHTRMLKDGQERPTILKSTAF
The conditions noted are these: literature values; cited from earlier work.

Another series relates to ATB^0,+ mRNA. Briefly: ATB0,+ mRNA levels in mouse intestine after bacterial lipopolysaccharide injection (semi-quantitative RT-PCR). The class given is in vivo. The note with it: 5 mg/kg i.p., 16 h; GAPDH as internal control. The method, then: Mice were injected i.p. with either saline (control) or bacterial lipopolysaccharide (5 mg/kg body wt). 16 h following injection, mice were killed and the various segments of the intestine (J, jejunum; L, ileum; C, colon) were collected for mRNA isolation. Five-week-old IL2^+/+ and IL2^−/− mice were killed and the various segments of the intestine were collected for mRNA isolation. Semiquantitative RT-PCR with low number of PCR cycles was carried out with primer pairs specific for mouse ATB^0,+, mouse glyceraldehyde-3-phosphate dehydrogenase (GAPDH), and mouse cyclophilin C (CypC) and the RT-PCR products were detected by Southern hybridization and the signals were quantified.
Since D-serine is an important modulator of glutamatergic neurotransmission and other D-amino acids may also have significant biological effects, it is of clinical relevance to know if there are any pathological conditions in which the intestinal absorption of D-amino acids may be altered. Therefore, the present inventors assessed the expression of ATB^0,+ in the intestinal tract under inflammatory conditions that are known to affect intestinal function. The present inventors used two different animal models for this purpose. […] The steady-state levels of ATB^0,+ mRNA were examined by a semi-quantitative RT-PCR in the jejunum, ileum, and colon. […]

Substrate in series [6]: N=C(NCCC[C@H](N)C(=O)O)N[N+](=O)[O-]
Briefly: cells, lysate or membranes. The conditions noted are these: other: oocytes, various concentrations; pH 7.5.

Substrate in series [7]: NC(=N[N+](=O)[O-])Nc1cccc([C@H](N)C(=O)O)c1
Briefly: cells, lysate or membranes. The note with it: pH 7.5.

Where [8] appears, read: HRPE cells, radiolabeled substrate.

In the case of `C[C@H](N)C(=O)O` [Alanine], the “Current in X. laevis oocytes (nA), L-isomer” value on mouse ATB^0,+ [1] (L-amino acid 1 mM, NaCl pH 7.5) is 650 ± 86 nA. For the same molecule, the inhibition constant (Ki) on mouse ATB^0,+ [2] amounted to 101 ± 14.2 µM; on ATB^0, 22.5 ± 4.2 µM.

As for `N[C@H](C(=O)O)c1ccccc1` [Phenylglycine, L-phenylglycine], at mouse ATB^0,+ [2], affinity was put at a Ki of 5.3 ± 0.4 µM. Moreover, the “transport in ATB^0,+-expressing cells versus vector-transfected cells (in words)” value at mouse ATB^0,+ [3] (HRPE cells, [14C]phenylglycine 10 μM or [8-3H]-valacyclovir 1.25 μM) is reported as “three times higher”. Besides, on mouse ATB^0,+ [3] ([14C]phenylglycine 10 μM, HRPE cells), the “cDNA-specific transport by ATB^0,+ relative to ATB^0 and mb^0,+AT” value is on record as “ten times higher”. Moreover, at mouse ATB^0,+ [4] (from Ki values of Table 5), the “affinity of ATB^0,+ relative to ATB^0” value is 4 times, the “affinity of ATB^0,+ relative to affinity for glycine” value turned out to be 19 times, the “affinity of ATB^0,+ relative to affinity for phenylalanine” value is recorded as 13 times and the “affinity of ATB^0,+ relative to b^0,+AT” value came to 53 times. For the same molecule, the affinity at ATB^0 corresponds to a Ki of 19 ± 5.5 µM. For the same molecule, the inhibition at mouse ATB^0,+ [5] was determined as 100%.

Regarding `C[N+](C)(C)CC(O)CC(=O)[O-]` (stereo not drawn) [carnitine, β-hydroxy-γ-trimethylaminobutyrate], the “Kt of OCTN2” value at OCTN2 is 5 to 15 µM. Besides, the induced inward currents on mouse ATB^0,+ [1] (10 mM carnitine, esters under similar conditions) was ~300 nA. For the same molecule, on mouse ATB^0,+ [1] (oocytes, carnitine 1 mM), the “Hill coefficient (nH) for Cl− activation of substrate-induced currents” value is listed as 0.9±0.2, the “Hill coefficient (nH) for Na+ activation of substrate-induced currents” value is given as 1.9±0.5, the “K0.5 for Cl− of substrate-induced currents” value was found to be 15 ± 5 mM and the “K0.5 for Na+ of substrate-induced currents” value is 25 ± 4 mM. In addition, on mouse ATB^0,+ [1] (oocytes, membrane potential −50 mV), the “K0.5 (concentration inducing half-maximal current; Michaelis-Menten constant)” value turned out to be 1.8 ± 0.4 mM. At mouse ATB^0,+ [3] (HRPE cells), the “Hill coefficient for Na+ activation of substrate transport” value stood at 1.6±0.1, the “K0.5 for Na+ in substrate transport” value was 54 ± 4 mM and the “Vmax of ATB^0,+-mediated transport” value is 72±2 nmol/10^6 cells/15 min. At mouse ATB^0,+ [3] (setting [8]), the “Michaelis-Menten constant (Kt) of transport via mouse ATB^0,+” value is 0.83 ± 0.08 mM and the “transport in ATB^0,+ cDNA-transfected cells compared to vector-transfected cells” value was determined as 16 fold. At mouse ATB^0,+ [3] (carnitine 15 μM, HRPE cells), the “reduction of transport on removal of Cl− (gluconate)” value is recorded as ~60% and the “transport when Na+ substituted with N-methyl-D-glucamine” value is given as “completely abolished”. The “Kt of ATB^0,+ (discussion summary)” value at mouse ATB^0,+ [3] (summary of HRPE cell and oocyte values) was in the range of 1 to 2 mM. Further, half-maximal inhibition against mouse ATB^0,+ [4] (IC50) was put at 600 ± 100 µM.

For lipopolysaccharide, in the series with ATB^0,+ mRNA, the “increase of ATB^0,+ mRNA versus saline-treated mice, colon” value was found to be 2 fold and the “increase of ATB^0,+ mRNA versus saline-treated mice, ileum” value stood at 7 fold.

B1: mouse ATB^0,+ (Mus musculus) (protein)
chain: MDRLKCPNFFKCRQKEKVTASSENFHVGENDENQERGNWSKKSDYLLSMVGYAVGLGNVWRFPYLTYTNGGGAFLIPYAIMLALAGLPLFFLECSLGQFASLGPVSVWRILPLFQGVGITMVLISVFVAIYYNVIIAYSLYYLFASFQSVLPWANCSSWADENCSRTPIVTGCNVSIGAGEMFMNISWVNTNNLTCLNGSEVFRPGQLPSEQYWDKVTLQRSSGMDETGVVVWYLALCLLLAWLIVGAALFKGIKSSGKVVYFTALFPYVVLLILLIRGATLEGASKGISYYIGAQSNFTKLREAEVWKDAATQIFYSLSVAWGGLVALSSYNKFNNNCYSDAIIVCLTNCLTSVFAGFAIFSILGHMAHISGKEVSQVVKSGFDLAFIAYPEALAQLPAGPFWSILFFFMLLTLGLDSQFASIETITTTFQDLFPKAMKRMRVPITLGCCLILFLLGLLCVTQAGIYWVHLIDHFCAGWGILIAAILEIAGIIWIYGGNRFIEDIEMMIGAKRWIFWLWWRACWFVITPILLSAILVWSLVKFHRPDYADIPYPDWGVALGWCMIIFCIIWIPIMAIIKIVQAEGNILQRIISCCRPASNWGPYLEKHRGERYRDMAEPAKETDHEIPTISGSTKPE
With B1, the Michaelis-Menten constant (Km) was 348 ± 5 µM in [6] and 106 ± 1 µM in [7].

What is called Ki is the dissociation constant of the complex between target and ligand, obtained from inhibition or displacement. What is called inhibition is the relative decrease from the control value, in per cent. A higher inhibition goes with a response far below the control. As a reminder, the IC50 is the midpoint of a concentration-inhibition curve. Lower therefore signals higher potency. One may read the Km as the concentration of substrate that gives half-maximal velocity.
